According to PubChem BioAssay (NCI):
Values joined by “and” are separate entries in the source; they are usually repeats but may differ in a detail not shown here. Equal entries are not always repeated.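 Exposure lasted 48 hours, with cells grown in 96-well plates and compounds tested at five concentrations. Abbreviation: GI50, concentration required for 50% inhibition of growth. TGI: concentration producing complete growth inhibition.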

Experiments:
Assay in all cases: NCI anticancer screen, dose series, 48 h
NCI-H23 lung = system: NCI-H23 lung
ACHN renal = system: ACHN renal
TK-10 renal = system: TK-10 renal
SF-268 CNS = system: SF-268 CNS
U251 CNS = system: U251 CNS
RPMI-8226 leukemia = system: RPMI-8226 leukemia
SNB-19 CNS = system: SNB-19 CNS
SF-295 CNS = system: SF-295 CNS
M14 melanoma = system: M14 melanoma
SK-MEL-28 melanoma = system: SK-MEL-28 melanoma
UACC-257 melanoma = system: UACC-257 melanoma
CCRF-CEM leukemia = system: CCRF-CEM leukemia
UO-31 renal = system: UO-31 renal
LOX IMVI melanoma = system: LOX IMVI melanoma
KM12 colon = system: KM12 colon
MOLT-4 leukemia = system: MOLT-4 leukemia
SR leukemia = system: SR leukemia
HT29 colon = system: HT29 colon
K-562 leukemia = system: K-562 leukemia
SNB-78 CNS = system: SNB-78 CNS
LXFL 529 NSCLC = system: LXFL 529 NSCLC
RXF 393 renal = system: RXF 393 renal
OVCAR-3 ovarian = system: OVCAR-3 ovarian
M19-MEL melanoma = system: M19-MEL melanoma
NCI-H460 lung = system: NCI-H460 lung
SN12C renal = system: SN12C renal
DMS 114 small cell lung = system: DMS 114 small cell lung
SNB-75 CNS = system: SNB-75 CNS
786-0 renal = system: 786-0 renal
DLD-1 colon = system: DLD-1 colon
A549 NSCLC = system: A549 NSCLC
NCI-H226 lung = system: NCI-H226 lung
NCI-H522 lung = system: NCI-H522 lung
COLO 205 colon = system: COLO 205 colon
MALME-3M melanoma = system: MALME-3M melanoma
HCT-15 colon = system: HCT-15 colon
SW-620 colon = system: SW-620 colon
HL-60(TB) leukemia = system: HL-60(TB) leukemia
SF-539 CNS = system: SF-539 CNS
UACC-62 melanoma = system: UACC-62 melanoma
KM20L2 colon = system: KM20L2 colon
IGROV1 ovarian = system: IGROV1 ovarian
OVCAR-8 ovarian = system: OVCAR-8 ovarian
EKVX NSCLC = system: EKVX NSCLC
SK-OV-3 ovarian = system: SK-OV-3 ovarian
DMS 273 small cell lung = system: DMS 273 small cell lung
HOP-62 NSCLC = system: HOP-62 NSCLC
HCT-116 colon = system: HCT-116 colon
SK-MEL-5 melanoma = system: SK-MEL-5 melanoma
NCI/ADR-RES ovarian = system: NCI/ADR-RES ovarian
PC-3 prostate = system: PC-3 prostate
MCF7 breast = system: MCF7 breast
A498 renal = system: A498 renal
MDA-N = system: MDA-N
DU-145 prostate = system: DU-145 prostate
BT-549 breast = system: BT-549 breast
HS 578T breast = system: HS 578T breast
MDA-MB-231 breast = system: MDA-MB-231 breast
SK-MEL-2 melanoma = system: SK-MEL-2 melanoma
MDA-MB-435 = system: MDA-MB-435
OVCAR-4 ovarian = system: OVCAR-4 ovarian
T-47D breast = system: T-47D breast
HOP-92 NSCLC = system: HOP-92 NSCLC
HCC-2998 colon = system: HCC-2998 colon
OVCAR-5 ovarian = system: OVCAR-5 ovarian
CAKI-1 renal = system: CAKI-1 renal

O=C1NC2C(CCO)CC=C[C@H]2c2cc3c(cc21)OCO3 (stereo partly drawn)
TGI (NCI-H23 lung): > 100 µM | TGI (ACHN renal): > 100 µM | TGI (TK-10 renal): > 100 µM | TGI (SF-268 CNS): > 100 µM | TGI (U251 CNS): > 100 µM | TGI (RPMI-8226 leukemia): > 100 µM | TGI (SNB-19 CNS): > 100 µM | TGI (SF-295 CNS): > 100 µM | TGI (M14 melanoma): > 100 µM | TGI (SK-MEL-28 melanoma): > 100 µM | TGI (UACC-257 melanoma): > 100 µM | TGI (CCRF-CEM leukemia): > 100 µM | TGI (UO-31 renal): > 100 µM | TGI (LOX IMVI melanoma): > 100 µM | TGI (KM12 colon): > 100 µM | TGI (MOLT-4 leukemia): > 100 µM | TGI (SR leukemia): > 100 µM | TGI (HT29 colon): > 100 µM | TGI (K-562 leukemia): > 100 µM | TGI (SNB-78 CNS): > 100 µM | TGI (LXFL 529 NSCLC): > 100 µM | TGI (RXF 393 renal): > 100 µM | TGI (OVCAR-3 ovarian): > 100 µM | TGI (M19-MEL melanoma): > 100 µM | TGI (NCI-H460 lung): > 100 µM | TGI (SN12C renal): > 100 µM | TGI (DMS 114 small cell lung): > 100 µM | TGI (SNB-75 CNS): > 100 µM | TGI (786-0 renal): > 100 µM | TGI (DLD-1 colon): > 100 µM | TGI (A549 NSCLC): > 100 µM | TGI (NCI-H226 lung): > 100 µM | TGI (NCI-H522 lung): > 100 µM | TGI (COLO 205 colon): > 100 µM | TGI (MALME-3M melanoma): > 100 µM | TGI (HCT-15 colon): > 100 µM | TGI (SW-620 colon): > 100 µM | TGI (HL-60(TB) leukemia): > 100 µM | TGI (SF-539 CNS): > 100 µM | TGI (UACC-62 melanoma): > 100 µM | TGI (KM20L2 colon): > 100 µM | TGI (IGROV1 ovarian): > 100 µM | TGI (OVCAR-8 ovarian): > 100 µM | TGI (EKVX NSCLC): > 100 µM | TGI (SK-OV-3 ovarian): > 100 µM | TGI (DMS 273 small cell lung): > 100 µM | TGI (HOP-62 NSCLC): > 100 µM | TGI (HCT-116 colon): > 100 µM

Cn1c(=N)n[n+]([O-])c2ccccc21
GI50 (NCI-H23 lung): 2440 nM | TGI (NCI-H23 lung): 4.4 µM and 6.39 µM | TGI (SK-MEL-5 melanoma): 3.32 µM and 2.96 µM | TGI (ACHN renal): 23.5 µM and 22 µM | TGI (TK-10 renal): 70 µM and > 59.4 µM | GI50 (NCI/ADR-RES ovarian): 4.44 µM and 9.2 µM | TGI (NCI/ADR-RES ovarian): > 100 µM and 42 µM | GI50 (SF-268 CNS): 2.67 µM and 7.11 µM | TGI (SF-268 CNS): 7.7 µM and 17.6 µM | TGI (U251 CNS): 25.3 µM and 24.1 µM | GI50 (RPMI-8226 leukemia): 1990 nM and 574 nM | TGI (RPMI-8226 leukemia): 5.19 µM and 7.67 µM | GI50 (SNB-19 CNS): 2.63 µM and 6.41 µM | TGI (SNB-19 CNS): 12.3 µM and 13.3 µM | TGI (SF-295 CNS): 4.49 µM and 15.2 µM | TGI (M14 melanoma): 3.7 µM and 3.76 µM | GI50 (SK-MEL-28 melanoma): 2.42 µM and 7.01 µM | TGI (SK-MEL-28 melanoma): 5.88 µM and 15.6 µM | TGI (UACC-257 melanoma): 5.51 µM and 3.92 µM | TGI (CCRF-CEM leukemia): 21.2 µM and 48.7 µM | TGI (UO-31 renal): 8.83 µM and 17.6 µM | TGI (PC-3 prostate): > 100 µM | TGI (LOX IMVI melanoma): > 100 µM | TGI (KM12 colon): 37.8 µM and 36.7 µM | TGI (MOLT-4 leukemia): 5.57 µM and 5.16 µM | GI50 (SR leukemia): 3.87 µM | TGI (SR leukemia): 14.7 µM and 9.32 µM | TGI (HT29 colon): 4.88 µM and 15.1 µM | TGI (K-562 leukemia): 10.8 µM and 5.45 µM | TGI (RXF 393 renal): 36.4 µM | GI50 (NCI-H460 lung): 2.59 µM and 20 µM | TGI (NCI-H460 lung): 4.53 µM and 37.5 µM | TGI (SN12C renal): 3.29 µM and 4.19 µM | TGI (MCF7 breast): 5.32 µM | TGI (SNB-75 CNS): 3.56 µM and 8.45 µM | TGI (786-0 renal): 16 µM and 24.8 µM | GI50 (A498 renal): 3.07 µM and 9.29 µM | TGI (A498 renal): 9.7 µM and 23.2 µM | TGI (A549 NSCLC): 23.1 µM and 29.8 µM | TGI (NCI-H226 lung): 24.8 µM and 32.4 µM | TGI (MDA-N): 3.66 µM | TGI (DU-145 prostate): 4.11 µM and 4.12 µM | TGI (BT-549 breast): 3.27 µM and 3.46 µM | TGI (NCI-H522 lung): 10.7 µM and 15.6 µM | TGI (COLO 205 colon): 5.3 µM and 5.52 µM | GI50 (HS 578T breast): 2.85 µM and 5.89 µM | TGI (HS 578T breast): 6.77 µM and 18.5 µM | TGI (MALME-3M melanoma): 6.15 µM | GI50 (HCT-15 colon): 4.72 µM | TGI (HCT-15 colon): 10.8 µM | TGI (MDA-MB-231 breast): > 100 µM | TGI (SK-MEL-2 melanoma): 8.87 µM and 12.5 µM | TGI (MDA-MB-435): 1830 nM and 2390 nM | TGI (OVCAR-4 ovarian): 7.55 µM and 5.23 µM | GI50 (T-47D breast): 4.34 µM and 9.12 µM | TGI (T-47D breast): 21.5 µM and 43.2 µM | TGI (HOP-92 NSCLC): 90.9 µM | TGI (HCC-2998 colon): 39.1 µM | TGI (SW-620 colon): > 26.8 µM | TGI (HL-60(TB) leukemia): 10.1 µM and 10.4 µM | TGI (SF-539 CNS): 3.67 µM and 2.98 µM | TGI (UACC-62 melanoma): 2.37 µM and 3.61 µM | TGI (IGROV1 ovarian): 10.7 µM and 11.6 µM | TGI (OVCAR-8 ovarian): 31.6 µM and > 55.3 µM | TGI (OVCAR-5 ovarian): 3.83 µM and 7.61 µM | TGI (EKVX NSCLC): 18.3 µM | TGI (SK-OV-3 ovarian): 46.9 µM and 52.5 µM | TGI (HOP-62 NSCLC): 4.29 µM and 4.98 µM | TGI (HCT-116 colon): > 100 µM | TGI (CAKI-1 renal): 5.86 µM and 6.18 µM
